Consider one compound from patent US4451463A, “Alcohol derivatives” (Imperial Chemical Industries PLC, priority 1981, dated 1984).

The nature of this data set: LD50 in mice, dosed intravenously. To be noted: mouse, in vivo, iv.

The structures appear in SMILES notation.

Consider `NC(=NCC(F)(F)F)Nc1ccnc(OCCCO)n1` [Example 1, 4-[2-(2,2,2-trifluoroethyl)guanidino]-2-(3-hydroxypropoxy)pyrimidine], for which the LD50 is approximately 30 mg/kg.

For orientation: LD50 means the dose at which mortality reaches 50%. A higher LD50 goes with a less toxic substance.
